Measurements published in ChEMBL document CHEMBL5046251, “Discovery of a Series of Pyrimidine Carboxamides as Inhibitors of Vanin-1” (J Med Chem, 2022).
Activity calls are given as the source filed them. The calls are words filed in the database; no cut-off is given here.

Key:
[1] = Volume of distribution at steady state in beagle dog by LC-MS/MS analysis; type: ADME, Canis lupus familiaris; conditions: in vivo, read-out: Vdss
[2] = Intrinsic clearance in human hepatocytes assessed per million cells by relay assay method; type: ADME, cell-based, Hepatocyte
[3] = Unbound drug concentration in serum of DSS-induced BALB/c mouse colitis model at 50 mg/kg administered for 10 days; type: ADME, organism-based; conditions: in vivo, 240 h, time 10 day
[4] = Half life in rat at 2 mg/kg, iv measured upto 24 hrs by LC-MS/MS analysis; conditions: in vivo
[5] = Clearance in rat at 2 mg/kg, iv measured upto 24 hrs by LC-MS/MS analysis; type: ADME, organism-based; conditions: in vivo
[6] = Renal clearance in rat at 2 mg/kg, iv assessed glomerular filtration rate; type: ADME, organism-based; conditions: in vivo
[7] = AUC in rat at 10 mg/kg, po measured upto 24 hrs by LC-MS/MS analysis; type: ADME, organism-based; design: route oral, dose 10 mg/kg, time <=24; conditions: in vivo
[8] = Plasma protein binding in human assessed as unbound fraction; type: ADME, cell-free
[9] = Inhibition of beagle dog vanin-1
[10] = Intrinsic clearance in human hepatocytes assessed per million cells; type: ADME, cell-based, Hepatocyte
[11] = AUC in rat at 2 mg/kg, iv measured upto 24 hrs by LC-MS/MS analysis; type: ADME, organism-based; design: route intravenous, dose 2 mg/kg, time <=24; conditions: in vivo
Mus musculus [12] = assay: Anti-colitis activity against DSS-induced BALB/c mouse model assessed as increase in body weight at 0.5 to 50 mg/kg, po, qd administered for 10 days; type: functional, organism-based; conditions: dose 0.5-50 mg/kg, time 10.0 day
CYP2A4 = assay: Inhibition of CYP2A4 (unknown origin) at 3 uM relative to control; type: ADME; conditions: human
Mus musculus [13] = assay: Anti-colitis activity against DSS-induced BALB/c mouse model assessed as reduction in disease activity index at 0.5 to 50 mg/kg, po, qd administered for 10 days; type: functional, organism-based; conditions: dose 0.5-50 mg/kg, time 10.0 day
[14] = Oral bioavailability in rat at 10 mg/kg measured upto 24 hrs by LC-MS/MS analysis; type: ADME, organism-based; conditions: in vivo
[15] = Plasma protein binding in Wistar han rat assessed as unbound fraction; type: ADME, cell-free
[16] = Renal clearance in beagle dog assessed as glomerular filtration rate; type: ADME, Canis lupus familiaris; conditions: in vivo
[17] = Oral bioavailability in beagle dog; type: ADME, organism-based, Canis lupus familiaris; conditions: in vivo
[18] = Volume of distribution in rat at 2 mg/kg, iv measured upto 24 hrs by LC-MS/MS analysis; type: ADME, organism-based; conditions: in vivo
[19] = Intrinsic clearance in human liver microsomes; type: ADME, Microsome
[20] = Intrinsic clearance in rat hepatocytes assessed per million cells; type: ADME, cell-based, Hepatocyte
[21] = Plasma protein binding in mouse assessed as unbound fraction; type: ADME, cell-free
Mus musculus [22] = assay: In vivo inhibition of vanin-1 in DSS-induced BALB/c mouse colitis model serum administered for 10 days; type: functional, organism-based; conditions: dose 0.5-50 mg/kg, time 10.0 day
[23] = Plasma protein binding in beagle dog assessed as unbound fraction; type: ADME, cell-free, Canis lupus familiaris
[24] = Clearance in beagle dog by LC-MS/MS analysis; type: ADME, Canis lupus familiaris; conditions: in vivo
[25] = Half life in beagle dog by LC-MS/MS analysis; conditions: in vivo
[26] = Unbound drug concentration in serum of DSS-induced BALB/c mouse colitis model at 1.5 mg/kg administered for 10 days; type: ADME, organism-based; conditions: in vivo, 240 h, time 10 day
[27] = Unbound drug concentration in serum of DSS-induced BALB/c mouse colitis model at 5 mg/kg administered for 10 days; type: ADME, organism-based; conditions: in vivo, 240 h, time 10 day
[28] = Unbound drug concentration in serum of DSS-induced BALB/c mouse colitis model at 0.5 mg/kg administered for 10 days; type: ADME, organism-based; conditions: in vivo, 240 h, time 10 day

O=C(c1cnc(NCc2cnccn2)nc1)N1CCC2(CCOCC2)C1 [PFI-653]
Vd [1]: 0.94 L/kg | CLint [2]: < 0.16 µL/min/1e6 cells | Drug uptake(free) [3]: 773 nM | half-life at 24 h [4]: 1 h | clearance [5]: 19 mL/min/kg | CL [6]: 55% | AUC at 24 h [7]: 8540 ng·h/mL | fraction unbound [8]: 0.812 | IC50 [9]: 900 pM | CLint [10]: < 3 µL/min/1e6 cells | AUC at 24 h [11]: 1790 ng·h/mL | Activity (Mus musculus [12]): Active | inhibition at 3 µM (CYP2A4): < 5% | Activity (Mus musculus [13]): Active | bioavailability [14]: 96% | fraction unbound [15]: 0.812 | CL [16]: 22% | bioavailability [17]: 100% | Vd [18]: 0.84 L/kg | Intrinsic clearance [19]: < 8 µL/min/mg | CLint [20]: < 3 µL/min/1e6 cells | fraction unbound [21]: 0.941 | Activity (Mus musculus [22]): Dose-Dependent Effect | fraction unbound [23]: 0.826 | clearance [24]: 3.5 mL/min/kg | half-life [25]: 3.4 h | Drug uptake(free) [26]: 61 nM | Drug uptake(free) [27]: 202 nM | Drug uptake(free) [28]: 1 nM
